According to paper PMC9943626, “CS27109, A Selective Thyroid Hormone Receptor-β Agonist Alleviates Metabolic-Associated Fatty Liver Disease in Murine Models” (International Journal of Endocrinology, 2023):
Read-outs that look alike come from different tables or passages of the source.

Legend:
[1] = test system: HFD-CHOL hamster model; assay: HFD-CHOL hamster model, serum biochemical test; assay type: in vivo, golden hamster; details: mean ± SD; for HDL-c: model 3.6 ± 1.1, normal 1.6 ± 0.45; for LDL-c: model 17 ± 6.1, normal 1.3 ± 0.54; for TG: model 26 ± 24, normal 2.1 ± 1.1; for TC: model 37 ± 13, normal 3.1 ± 0.72; for ALT: model 278 ± 174, normal 94 ± 58; for AST: model 638 ± 323, normal 98 ± 45
Procedure: Hamster study: 58 golden hamsters ♂ aged 6–8 weeks were purchased from Beijing Vital River Laboratory Animal Technology Co., Ltd. 10 animals were kept with a diet of food control as normal control, and the other 48 animals were fed 40% fat and 1.25% cholesterol (HFD-CHOL, D12108C, Research diet) as a model group. […] Animals in the normal and model group were given solvent by oral gavage. All drugs, including solvent, were administered consecutively for 4 weeks and once a day. After sacrifice, blood was collected and serum was isolated for the AST, ALT, TG, TC, LDL-c, and HDL-c test.

[2] = test system: WD + CCL4 mouse model; assay: WD + CCL4 mouse model, biochemical, liver weight ratio and liver pathology; assay type: in vivo, C57/B6 mouse; details: for LDL-c / TG / HDL-c / TC / CK activity / AST / ALT: WD + CCL4 mouse serum; for LDL-c / TG / HDL-c / TC / CK activity / AST / ALT / L/B (liver/body weight ratio): mean ± SD; for LDL-c: model 1.1 ± 0.35, normal 0.43 ± 0.04; for TG: model 1.2 ± 0.34, normal 0.91 ± 0.14; for HDL-c: model 1.5 ± 0.25, normal 2.0 ± 0.08; for TC: model 4.1 ± 0.97, normal 3.0 ± 0.10; for CK activity: model 345 ± 268, normal 334 ± 193; for AST: model 10245 ± 4955, normal 116 ± 71; for ALT: model 14003 ± 4205, normal 54 ± 15; for L/B (liver/body weight ratio): model 3.5 ± 0.27, normal 3.5 ± 0.27
Procedure: C57/B6 mouse study: 61 C57/B6 mice ♂ aged 6–7 weeks were purchased from Beijing Vital River Laboratory Animal Technology Co., Ltd. Six animals were kept with a chow diet as normal control, and the other 55 animals were fed 60% fat diet (Western diet, D12492, Research diet) as the model group. […] Animals in the normal and model groups were given solvent by oral gavage. All drugs, including solvent, were administered consecutively for 4 weeks and once a day. After sacrifice, blood was collected and serum was isolated for the AST, ALT, TG, TC, LDL-c, HDL-c, and CK tests, and the livers were weighed to calculate the liver weight ratio. The left lobe of the liver of each mouse was collected for hematoxylin-eosin staining (H and E staining) and sirius red staining.
(§1) The liver samples were fixed in 10% formalin and embedded in paraffin using standard methods. The 4 μm paraffin sections were then assessed for liver histology by H and E staining and liver fibrosis by sirius red staining. The stained sections were panoramic scanned with a NanoZoomer Digital Pathology scanner (S210, Hamamatsu, Japan), and then observed with different visual fields at different magnifications, and scored for different liver lobes in the sections. The total NAS score represents the sum of the scores for steatosis (0–3), lobular inflammation (0–3), and ballooning (0–2), and ranges from 0–8 [30]. VIS7.0 software was used to analyze the area of liver fibrosis in the panoramic scanning SR staining sections, and the percentage of liver fibrosis area in the whole section area was calculated.

[3] = molecular target: T1, hERG (Homo sapiens, UniProt Q12809); assay: hERG test (QPatch HTX); assay type: cell-based
T1 construct: Ice Bioscience Co., Ltd. (Beijing, China)
T1 sequence (Q12809 whole entry): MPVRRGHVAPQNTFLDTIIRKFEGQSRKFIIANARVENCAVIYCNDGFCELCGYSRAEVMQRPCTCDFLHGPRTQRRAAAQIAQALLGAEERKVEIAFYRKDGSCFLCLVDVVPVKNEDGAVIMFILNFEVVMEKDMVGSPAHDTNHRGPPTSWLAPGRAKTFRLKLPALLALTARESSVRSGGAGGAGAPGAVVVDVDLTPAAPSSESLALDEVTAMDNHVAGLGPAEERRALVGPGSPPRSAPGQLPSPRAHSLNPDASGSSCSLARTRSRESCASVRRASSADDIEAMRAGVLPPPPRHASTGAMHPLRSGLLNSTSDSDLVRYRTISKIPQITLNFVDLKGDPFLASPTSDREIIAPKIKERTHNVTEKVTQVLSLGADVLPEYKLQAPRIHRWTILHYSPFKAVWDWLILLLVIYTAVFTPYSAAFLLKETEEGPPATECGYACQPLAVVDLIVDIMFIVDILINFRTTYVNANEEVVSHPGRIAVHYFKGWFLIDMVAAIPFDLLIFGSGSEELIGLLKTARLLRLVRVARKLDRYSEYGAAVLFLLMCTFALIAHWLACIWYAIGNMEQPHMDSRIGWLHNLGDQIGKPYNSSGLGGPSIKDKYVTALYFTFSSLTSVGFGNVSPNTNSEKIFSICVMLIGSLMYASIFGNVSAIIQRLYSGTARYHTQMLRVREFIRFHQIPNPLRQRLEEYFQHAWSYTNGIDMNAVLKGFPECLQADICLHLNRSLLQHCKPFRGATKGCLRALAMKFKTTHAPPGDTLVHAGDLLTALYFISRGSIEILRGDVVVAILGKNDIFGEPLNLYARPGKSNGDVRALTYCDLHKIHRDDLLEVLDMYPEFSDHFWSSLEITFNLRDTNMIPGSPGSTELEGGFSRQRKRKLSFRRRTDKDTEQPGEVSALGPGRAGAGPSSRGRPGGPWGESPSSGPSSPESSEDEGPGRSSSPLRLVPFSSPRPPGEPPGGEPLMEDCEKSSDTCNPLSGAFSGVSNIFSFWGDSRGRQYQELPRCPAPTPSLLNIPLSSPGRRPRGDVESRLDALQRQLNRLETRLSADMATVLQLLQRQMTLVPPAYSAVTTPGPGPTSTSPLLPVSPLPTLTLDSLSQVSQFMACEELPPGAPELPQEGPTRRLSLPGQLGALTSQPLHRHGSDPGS
Procedure: hERG test was performed by Ice Bioscience Co., Ltd. (Beijing, China) using the QPatch HTX method according to the manufacturer's instruction. 5 doses of CS27109 were tested, including […], each one with a duplicate. The tested values (current) were normalized to the negative control (0.1% DMSO), and IC50 was calculated based on the normalized data.

[4] = test system: HFD SD rat model; assay: HFD SD rat model, biochemical, organ weight ratio, liver lipid and liver pathology; assay type: in vivo; details: for Liver TC / Liver TG: HFD SD rat liver; for Liver TC / Liver TG / TG / HDL-c / LDL-c / TC / ALT / AST / H/B (heart/body weight ratio) / L/B (liver/body weight ratio): mean ± SD; for Liver TC: model 13 ± 2.2, normal 6.0 ± 0.76; for Liver TG: model 102 ± 36, normal 0.75 ± 12; for TG / HDL-c / LDL-c / TC / ALT / AST: HFD SD rat serum; for TG: model 0.82 ± 0.73, normal 0.53 ± 0.34; for HDL-c: model 1.2 ± 0.44, normal 1.1 ± 0.13; for LDL-c: model 9.7 ± 6.1, normal 0.28 ± 0.06; for TC: model 20 ± 13, normal 1.5 ± 0.20; for ALT: model 166 ± 95, normal 32 ± 6.8; for AST: model 365 ± 212, normal 103 ± 21; for H/B (heart/body weight ratio): model 0.24 ± 0.02, normal 0.28 ± 0.02; for L/B (liver/body weight ratio): model 5.1 ± 0.75, normal 2.8 ± 0.26
Procedure: SD rat study: 58 SD rats ♂ aged 5–6 weeks were purchased from Beijing Huafukang Biotechnology Co., Ltd. 9 animals were kept with a food control diet as normal control, and the other 49 animals were fed 40% fat, 1.25% cholesterol and 0.5% sodium cholate (HFD, D12109C, SYSE BIO, Changzhou, China) as a model group. […] Animals in the normal and model groups were given solvent by oral gavage. All drugs, including solvent, were administered consecutively for 4 weeks and once a day. After sacrifice, blood was collected and serum was isolated for the AST, ALT, TG, TC, LDL-c, and HDL-c test, and livers and hearts were weighed to calculate the liver weight ratio and the heart weight ratio, respectively. The right lobe of the liver of each rat was harvested for the TG and TC test (A110-1-1 and A111-1-1, Nanjing Jiancheng Institute of Bioengineering, Nanjing, China) according to the manufacturer's instructions. The left lobe of the liver was collected for hematoxylin-eosin staining (H and E staining) to quantify liver steatosis, inflammation, and ballooning.
as §1

[5] = Observation of diarrhea in treated animals; assay type: in vivo, rodents; details: animal studies
[6] = Tissue distribution in SD rat; assay type: in vivo; details: for concentration at 2 h / concentration at 8 h: male, 10 mg/kg oral gavage once
Text: [Worded in the source for another organism; this organism is reported under the same test.] Half of mice for each group (n = 3) were sacrificed 2H and 8H after drug administration, respectively. Blood, heart, and liver were collected at each time point. Blood was processed and detected as mentioned previously. The heart and liver were homogenized and added extractant. The protein of tissue samples was precipitated by vortex oscillation, and the supernatant was collected and determined by LC-MS/MS procedures.

[7] = 3 mg/kg (L) oral once a day 4 weeks
[8] = 10 mg/kg (CS27109-M, MGL-3196) oral once a day 4 weeks
[9] = 30 mg/kg (H) oral once a day 4 weeks
[10] = WD + CCL4 mouse, 4 weeks, MGL3196 10 mg/kg, CS27109 high-dose (30 mg/kg), vs model
[11] = 5 mg/kg (L) oral once a day 4 weeks
[12] = 15 mg/kg (CS27109-M, MGL-3196) oral once a day 4 weeks
[13] = 45 mg/kg (H) oral once a day 4 weeks
[14] = HFD SD rat, 5 mg/kg (L) oral once a day 4 weeks
[15] = HFD SD rat, 15 mg/kg (CS27109-M, MGL-3196) oral once a day 4 weeks
[16] = HFD SD rat, 45 mg/kg (H) oral once a day 4 weeks
[17] = heart, read-out: Heart concentration
[18] = liver, read-out: Liver concentration
[19] = serum, read-out: Serum concentration

Compound N#Cc1nn(-c2cc(Br)c(Oc3n[nH]c(=O)c4ccccc34)c(Br)c2)c(=O)[nH]c1=O [CS27109] has an HDL-c [1, 7] of 2.6 ± 0.62 mmol/L, an LDL-c [1, 7] of 13 ± 4.3 mmol/L and a TG [1, 7] of 32 ± 31 mmol/L. The TC [1, 7] was 29 ± 8.6 mmol/L, the ALT [1, 7] was 226 ± 104 U/L and the AST [1, 7] was 564 ± 317 U/L. The HDL-c [1, 8] was 3.0 ± 0.52 mmol/L, the LDL-c [1, 8] was 12 ± 3.8 mmol/L and the TG [1, 8] was 17 ± 26 mmol/L. The TC [1, 8] was 25 ± 7.4 mmol/L, the ALT [1, 8] was 141 ± 133 U/L and the AST [1, 8] was 582 ± 383 U/L. The HDL-c [1, 9] was 2.6 ± 0.53 mmol/L, the LDL-c [1, 9] was 8.7 ± 4.1 mmol/L and the TG [1, 9] was 11 ± 19 mmol/L. For the same compound, the TC [1, 9] was 19 ± 7.9 mmol/L, the AST [1, 9] was 416 ± 158 U/L and the LDL-c [2, 7] was 0.40 ± 0.10 mmol/L. The TG [2, 7] was 1.2 ± 0.34 mmol/L, the HDL-c [2, 7] was 0.85 ± 0.24 mmol/L and the TC [2, 7] was 2.3 ± 0.40 mmol/L. The CK activity [2, 7] was 331 ± 386 U/L, the AST [2, 7] was 13447 ± 6633 U/L and the ALT [2, 7] was 19162 ± 4012 U/L. It also gave an LDL-c [2, 8] of 0.37 ± 0.07 mmol/L, a TG [2, 8] of 1.2 ± 0.19 mmol/L and an HDL-c [2, 8] of 0.94 ± 0.25 mmol/L. The TC [2, 8] was 2.2 ± 0.36 mmol/L, the CK activity [2, 8] was 201 ± 95 U/L and the AST [2, 8] was 4804 ± 1121 U/L. It also gave an ALT [2, 8] of 10478 ± 2131 U/L, an LDL-c [2, 9] of 0.39 ± 0.11 mmol/L and a TG [2, 9] of 1.2 ± 0.18 mmol/L. It also gave an HDL-c [2, 9] of 1.2 ± 0.31 mmol/L, a TC [2, 9] of 2.4 ± 0.48 mmol/L and a CK activity [2, 9] of 280 ± 147 U/L. The AST [2, 9] was 3660 ± 1208 U/L, the ALT [2, 9] was 7832 ± 2422 U/L and the “liver inflammation score (H and E)” value [2, 10] was “notable reduction”. The “liver steatosis score (H and E)” value [2, 10] was “notable reduction”, the “liver ballooning score (H and E)” value ([2]; WD + CCL4 mouse, 4 weeks, only low-dose CS27109 (3 mg/kg), vs model) was “significantly reduced liver ballooning” and the “area of liver fibrosis (sirius red)” value ([2]; WD + CCL4 mouse, 4 weeks, three doses of CS27109 (3, 10, 30 mg/kg), MGL3196 10 mg/kg, vs model) was “prominently reduced the area of the fibrosis”. The “L/B (liver/body weight ratio)” value ([2]; WD + CCL4 mouse, 3 mg/kg (L) oral once a day 4 weeks) was 3.3 ± 0.40%, the “L/B (liver/body weight ratio)” value ([2]; WD + CCL4 mouse, 10 mg/kg (CS27109-M, MGL-3196) oral once a day 4 weeks) was 3.2 ± 0.68% and the “L/B (liver/body weight ratio)” value ([2]; WD + CCL4 mouse, 30 mg/kg (H) oral once a day 4 weeks) was 3.2 ± 0.79%. For the same compound, the IC50 [3] was greater than 30 µM, the hERG test result [3] was “cardiac tolerable” and the “Liver TC” value [4, 11] was 11 ± 1.1 µmol/g. For the same compound, the “Liver TG” value [4, 11] was 71 ± 28 µmol/g, the “Liver TC” value [4, 12] was 10 ± 0.74 µmol/g and the “Liver TG” value [4, 12] was 54 ± 24 µmol/g. The “Liver TC” value [4, 13] was 10 ± 2.2 µmol/g, the “Liver TG” value [4, 13] was 69 ± 21 µmol/g and the TG [4, 11] was 0.19 ± 0.08 mmol/L. It also gave an HDL-c [4, 11] of 0.78 ± 0.18 mmol/L, an LDL-c [4, 11] of 1.6 ± 0.74 mmol/L and a TC [4, 11] of 4.4 ± 1.8 mmol/L. For the same compound, the ALT [4, 11] was 85 ± 34 U/L, the AST [4, 11] was 213 ± 78 U/L and the TG [4, 12] was 0.22 ± 0.06 mmol/L. It also gave an HDL-c [4, 12] of 0.98 ± 0.32 mmol/L, an LDL-c [4, 12] of 0.84 ± 0.44 mmol/L and a TC [4, 12] of 2.9 ± 0.98 mmol/L. The ALT [4, 12] was 68 ± 24 U/L, the AST [4, 12] was 218 ± 82 U/L and the TG [4, 13] was 0.20 ± 0.08 mmol/L. It also gave an HDL-c [4, 13] of 1.0 ± 0.30 mmol/L, an LDL-c [4, 13] of 0.59 ± 0.32 mmol/L and a TC [4, 13] of 2.3 ± 0.65 mmol/L. For the same compound, the ALT [4, 13] was 89 ± 50 U/L, the AST [4, 13] was 253 ± 131 U/L and the “liver steatosis score (H and E)” value ([4]; HFD SD rat, 4 weeks, CS27109 5-45 mg/kg dose-dependent, MGL3196 15 mg/kg, vs model) was “lessened steatosis”. The “liver inflammation score (H and E)” value ([4]; HFD SD rat, 4 weeks, CS27109 5-45 mg/kg, MGL3196 15 mg/kg, vs model) was “dose-dependently reduced liver inflammation, but without a significant effect”, the NAS score ([4]; HFD SD rat, 4 weeks, high dose CS27109 (45 mg/kg) only, vs model) was “decreased the NAS score” and the “H/B (heart/body weight ratio)” value [4, 14] was 0.27 ± 0.03%. The “L/B (liver/body weight ratio)” value [4, 14] was 4.0 ± 0.52 %, the “H/B (heart/body weight ratio)” value [4, 15] was 0.28 ± 0.02 % and the “L/B (liver/body weight ratio)” value [4, 15] was 4.1 ± 0.56 %. For the same compound, the “H/B (heart/body weight ratio)” value [4, 16] was 0.27 ± 0.02%, the “L/B (liver/body weight ratio)” value [4, 16] was 3.9 ± 0.54 % and the “diarrhea in treated animals” value [5] was “rarely observed”. The “average of concentration liver/heart” value ([6]; 10 mg/kg oral, average of 2H and 8H) was 26.69, the concentration at 2 h [6, 17] was 95.7 ng/g and the concentration at 8 h [6, 17] was 309 ng/g. For the same compound, the concentration at 2 h [6, 18] was 1670 ng/g, the concentration at 8 h [6, 18] was 11100 ng/g and the concentration at 2 h [6, 19] was 670 ng/mL. For the same compound, the concentration at 8 h [6, 19] was 3620 ng/mL.
